The numbers were not newly measured in patent US20220409351A1, “ORAL APPLIANCE FOR DELIVERY OF AN ANTIMICROBIAL COMPOSITION” (Emanate Biomedical, Inc., priority 2019, published 2022), which cites them from elsewhere.

Data set [1] concerns oral pathogenic bacteria. The settings on record: against oral pathogenic bacteria.
Data set [2] deals with oral pathogenic bacteria. The settings on record: at 10 minutes.

With `[H]/N=C(\N/C(=N/[H])NCCCCCCNC(=N)NC(=N)Nc1ccc(Cl)cc1)Nc1ccc(Cl)cc1` [Chlorhexidine, chlorhexidine], the MIC in the data set with oral pathogenic bacteria [1] is 0.0125 % w/v. Besides, the MBC in the data set on oral pathogenic bacteria [2] is reported as 0.5 % w/v.
